Holding throughout (format): cell-based
For assay [1], the system named is PBMCs. Put plainly: LPS-induced TNFα/IL-8 release in PBMC cells. The following applies: Homo sapiens, assay (b), read-out: IC50 Values for Inhibition of Cytokine Release PBMCs IL-8. In a few lines:
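Healthy-donor PBMCs isolated by density gradient were pretreated with compound for 2 h, then stimulated with 1 ng/mL LPS (E. coli 0111:B4) for 24 h at 37° C., 5% CO2. IL-8 and TNFα in supernatants measured by sandwich ELISA.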

In the next assay the test system is HT29 cells. Put plainly: IL-1β-induced IL-8 release in HT29 cells. The following applies: Homo sapiens, HT-29, assay (d), read-out: IC50 Values for Inhibition of Cytokine Release HT29 cells IL-8. As to the method:
HT29 cells, a human colon adenocarcinoma cell line, are plated in a 96 well plate (24 hr) and pre-treated with compounds at the desired concentration for 2 hours before addition of 5 ng/mL of IL-1β (Abcam) for 24 hours. Supernatants are harvested for IL-8 quantification by Sandwich ELISA (Duo-set, R&D System). The IC50 is determined from the dose response curve.

The subject of assay [2] is PBMCs. Put plainly: IL-2 and IFN gamma release in CD3/CD28 stimulated PBMC cells. As to conditions: Homo sapiens, assay (c). As to the method: PBMCs from healthy subjects are separated from whole blood using a density gradient (Lymphoprep, Axis-Shield Healthcare). Cells are added to a 96 well plate pre-coated with a mixture of CD3/CD28 monoclonal antibodies (0.3 μg/mL eBioscience and 3 μg/mL BD Pharmingen respectively). Compound at the desired concentration is then added to the wells and the plate left for 3 days under normal tissue culture conditions. […] The IC50 is determined from the dose response curve.

Assay [3] deals with PBMCs. Put plainly: Cell mitosis assay in PBMCs. The following applies: Homo sapiens, PBMC, 5 μg/mL. As to the method:
Peripheral blood mononucleocytes (PBMCs) from healthy subjects are separated from whole blood (Quintiles, London, UK) using a density gradient (Histopaque®-1077, Sigma-Aldrich, Poole, UK). The PBMCs (3 million cells per sample) are subsequently treated with 2% PHA (phytohaemagglutinin, Sigma-Aldrich, Poole, UK) for 48 hr, followed by a 20 hr exposure to varying concentrations of test compounds. At 2 hr before collection, PBMCs are treated with demecolcine (0.1 μg/mL; Invitrogen, Paisley, UK) to arrest cells in metaphase. To observe mitotic cells, PBMCs are permeabilised and fixed by adding Intraprep (50 μL; Beckman Coulter, France), and stained with anti-phospho-histone 3 (0.26 ng/L; #9701; Cell Signalling, Danvers, Mass.) and propidium iodide (1 mg/mL; Sigma-Aldrich, Poole, UK) as previously described (Muehlbauer P. A. and Schuler M. J., Mutation Research, 2003, 537:117-130). Fluorescence is observed using an ATTUNE flow cytometer (Invitrogen, Paisley, UK), gating for lymphocytes.

Setting [4] is: read-out: IC50 Values for Inhibition of Cytokine Release PBMCs IFNγ.
The mark [5] stands for this setting: read-out: IC50 Values for Inhibition of Cytokine Release PBMCs IL-2.

In general, IC50 refers to the concentration needed to halve the response being measured. On to `COCCOCCOCCOc1cc(Nc2nccc(Oc3ccc(NC(=O)Nc4cc(C(C)(C)C)cc(NS(C)(=O)=O)c4-c4ccccc4)c4ccccc34)n2)cc(OC)c1` [83(a), N-(4-(tert-butyl)-6-(3-(4-((2-((3-methoxy-5-(2-(2-(2-methoxyethoxy)ethoxy)ethoxy)phenyl)-amino)pyrimidin-4-yl)oxy)naphthalen-1-yl)ureido)-[1,1′-biphenyl]-2-yl)methane-sulfonamide], for which the IC50 was determined as 39 nM in the assay on PBMCs [1] and 62.5 nM with HT29 cells.
For `COCCOCCOCCOc1cc(Nc2nccc(Oc3ccc(NC(=O)Nc4cc(N5CCOCC5)ccc4OC)c4ccccc34)n2)cc(OC)c1` [Example 12, 1-(4-((2-((3-Methoxy-5-(2-(2-(2-methoxyethoxy)ethoxy)ethoxy)phenyl)amino)-pyrimidin-4-yl)oxy)naphthalen-1-yl)-3-(2-methoxy-5-morpholinophenyl)urea] the same measures were 107 nM and 1320 nM.
For orientation: inhibition means how much of the control response was suppressed. Read a low inhibition as a weak effect. With `COCCOCCOCCOc1cc(Nc2nccc(Oc3ccc(NC(=O)Nc4cc(C(C)(C)C)cc(C(N)=O)c4OC)c4ccccc34)n2)cc(OC)c1` [Example 20, 5-(tert-Butyl)-2-methoxy-3-(3-(4-((2-((3-methoxy-5-(2-(2-(2-methoxyethoxy)ethoxy)-ethoxy)phenyl)amino)pyrimidin-4-yl)oxy)naphthalen-1-yl)ureido)benzamide], the IC50 in the assay on PBMCs [1] was determined as 1.1 nM; with PBMCs [2] (setting [4]), 9 nM; in the assay with PBMCs [2] (setting [5]) it was 84.3 nM. Moreover, the inhibition at 5 µg/mL with PBMCs [3] is 44.3%.
Regarding `COCCOCCOCCOc1cc(Nc2nccc(Oc3ccc(NC(=O)Nc4cc(NS(C)(=O)=O)cc(C(C)(C)C)c4)c4ccccc34)n2)cc(OC)c1` [Example 24, N-(3-(tert-Butyl)-5-(3-(4-((2-((3-methoxy-5-(2-(2-(2-methoxyethoxy)ethoxy)ethoxy)-phenyl)amino)pyrimidin-4-yl)oxy)naphthalen-1-yl)ureido)phenyl)methanesulfonamide], the IC50 with PBMCs [1] stood at 1.9 nM; with PBMCs [2] (setting [4]), 10.7 nM; in the assay on PBMCs [2] (setting [5]), 24.9 nM. In the assay on PBMCs [3], the inhibition at 5 µg/mL was 22.5%.
As for `COCCOCCOCCOc1cc(Nc2nccc(Oc3ccc(NC(=O)Nc4cc(C(C)(C)C)cc(C(=O)NCCO)c4OC)c4ccccc34)n2)cc(OC)c1` [Example 35, 5-(tert-Butyl)-N-(2-hydroxyethyl)-2-methoxy-3-(3-(4-((2-((3-methoxy-5-(2-(2-(2-methoxy-ethoxy)ethoxy)ethoxy)phenyl)amino)pyrimidin-4-yl)oxy)naphthalen-1-yl)ureido)-benzamide], the concentration for half-maximal inhibition (IC50) was 1.4 nM in the assay on PBMCs [1], 3.5 nM in the assay on PBMCs [2] (setting [4]) and 51 nM with PBMCs [2] (setting [5]). Besides, the inhibition at 5 µg/mL with PBMCs [3] came out at 41.1%.
Take `COCCOCCOCCOc1cc(Nc2nccc(Oc3ccc(NC(=O)Nc4cc(C(C)(C)C)cc(C(=O)NCCN(C)C)c4OC)c4ccccc34)n2)cc(OC)c1` [Example 46, 5-(tert-Butyl)-N-(2-(dimethylamino)ethyl)-2-methoxy-3-(3-(4-((2-((3-methoxy-5-(2-(2-(2-methoxyethoxy)ethoxy)ethoxy)phenyl)amino)pyrimidin-4-yl)oxy)naphthalen-1-yl)ureido)-benzamide]: the IC50 in the assay on PBMCs [1] is 0.9 nM; with PBMCs [2] (setting [4]), 2 nM. The compound also gave an inhibition at 5 µg/mL in the assay with PBMCs [3] of 67.1%.
Consider `COc1cc(Nc2cc(Oc3ccc(NC(=O)Nc4cc(C(C)(C)C)cc(C(N)=O)c4OC)c4ccccc34)ccn2)cc(C(=O)NCCN2CCOCC2)c1` [Example 47, 3-((4-((4-(3-(5-(tert-Butyl)-3-carbamoyl-2-methoxyphenyl)ureido)naphthalen-1-yl)oxy)pyridin-2-yl)amino)-5-methoxy-N-(2-morpholinoethyl)benzamide], for which the IC50 came to 1.6 nM in the assay with PBMCs [1], 7.3 nM with PBMCs [2] (setting [4]) and 102 nM in the assay on PBMCs [2] (setting [5]). Moreover, in the assay on PBMCs [3], the inhibition at 5 µg/mL amounted to 59.1%.
As for `C#Cc1cc(Nc2cc(Oc3ccc(NC(=O)Nc4cc(C(C)(C)C)cc(NS(C)(=O)=O)c4OC)c4ccccc34)ccn2)cc(C(=O)NCCOCCOCCOC)c1` [Example 54, 3-((4-((4-(3-(5-(tert-Butyl)-2-methoxy-3-(methylsulfonamido)phenyl)ureido)naphthalen-1-yl)oxy)pyridin-2-yl)amino)-5-ethynyl-N-(2-(2-(2-methoxyethoxy)ethoxy)ethyl)benzamide], the IC50 in the assay with PBMCs [1] came out at 1.6 nM; in the assay with PBMCs [2] (setting [4]) it was 33.3 nM; in the assay on PBMCs [2] (setting [5]), 354 nM. In the assay on PBMCs [3], this compound returned an inhibition at 5 µg/mL of 37.8%.
For `COCCOCCOCCOc1cc(Nc2nccc(Oc3ccc(NC(=O)Nc4cc(C(C)(C)C)cc(-c5nnco5)c4OC)c4ccccc34)n2)cc(OC)c1` [Example 59, 1-(5-(tert-Butyl)-2-methoxy-3-(1,3,4-oxadiazol-2-yl)phenyl)-3-(4-((2-((3-methoxy-5-(2-(2-(2-methoxyethoxy)ethoxy)ethoxy)phenyl)amino)pyrimidin-4-yl)oxy)naphthalen-1-yl)urea] the same measures were 3.3 nM, 7.6 nM, 58.6 nM and 55.3%.
For `C#Cc1cc(Nc2cc(Oc3ccc(NC(=O)Nc4cc(C(C)(C)C)cc(NS(C)(=O)=O)c4OC)c4ccccc34)ccn2)cc(C(=O)N[C@@H](C)COCCOCCOC)c1` [Example 67, (S)-3-((4-((4-(3-(5-(tert-Butyl)-2-methoxy-3-(methylsulfonamido)phenyl)ureido)-naphthalen-1-yl)oxy)pyridin-2-yl)amino)-5-ethynyl-N-(1-(2-(2-methoxyethoxy)ethoxy)-propan-2-yl)benzamide] the same measures were 2.7 nM, 39.5 nM, 200 nM and 35.6%.
As to `COCCOCCOCCOc1cc(Nc2nccc(Oc3ccc(NC(=O)Nc4cc(C(C)(C)C)cc(NS(=O)(=O)C(F)(F)F)c4OC)c4ccccc34)n2)cc(OC)c1` [Example 71, N-(5-(tert-Butyl)-2-methoxy-3-(3-(4-((2-((3-methoxy-5-(2-(2-(2-methoxyethoxy)ethoxy)-ethoxy)phenyl)amino)pyrimidin-4-yl)oxy)naphthalen-1-yl)ureido)phenyl)-1,1,1-trifluoro-methanesulfonamide], the IC50 was 114 nM with PBMCs [1] and 1150 nM in the assay with HT29 cells.
Take `COc1c(NC(=O)Nc2ccc(Oc3ccnc(NCc4ccccn4)c3)c3ccccc23)cc(C(C)(C)C)cc1C(=O)NC1COC1` [Example 80, 5-(tert-Butyl)-2-methoxy-N-(oxetan-3-yl)-3-(3-(4-((2-((pyridin-2-ylmethyl)amino)pyridin-4-yl)oxy)naphthalen-1-yl)ureido)benzamide]: the figures for the IC50 in the assay with PBMCs [1] and with PBMCs [2] (setting [4]) were 4.3 nM and 23.8 nM, respectively. Testing at 5 µg/mL in the assay on PBMCs [3] gave an inhibition of 70.4%.
On to `COc1cccc(Nc2cc(Oc3ccc(NC(=O)Nc4cc(C(C)(C)C)cc(C(=O)NC5COC5)c4OC)c4ccccc34)ccn2)c1` [Example 81, 5-(tert-Butyl)-2-methoxy-3-(3-(4-((2-((3-methoxyphenyl)amino)pyridin-4-yl)oxy)naphthalen-1-yl)ureido)-N-(oxetan-3-yl)benzamide], for which the IC50 in the assay with PBMCs [1] came out at 2.7 nM; in the assay with PBMCs [2] (setting [4]), 4 nM; in the assay on PBMCs [2] (setting [5]), 98.8 nM. This compound also yielded an inhibition at 5 µg/mL in the assay with PBMCs [3] of 58.1%.
